In patent US20090281077A1, “Cyclic sulfones useful as mitochondrial sodium-calcium exchangers” (priority 2006, published 2009):

Target: T1, mitochondrial sodium-calcium exchanger (mNCE) (Rattus norvegicus, UniProt Q6AXS0)
T1 construct: from tissue; host or cells: rat whole brain, isolated mitochondria
T1 sequence (Q6AXS0 27-585): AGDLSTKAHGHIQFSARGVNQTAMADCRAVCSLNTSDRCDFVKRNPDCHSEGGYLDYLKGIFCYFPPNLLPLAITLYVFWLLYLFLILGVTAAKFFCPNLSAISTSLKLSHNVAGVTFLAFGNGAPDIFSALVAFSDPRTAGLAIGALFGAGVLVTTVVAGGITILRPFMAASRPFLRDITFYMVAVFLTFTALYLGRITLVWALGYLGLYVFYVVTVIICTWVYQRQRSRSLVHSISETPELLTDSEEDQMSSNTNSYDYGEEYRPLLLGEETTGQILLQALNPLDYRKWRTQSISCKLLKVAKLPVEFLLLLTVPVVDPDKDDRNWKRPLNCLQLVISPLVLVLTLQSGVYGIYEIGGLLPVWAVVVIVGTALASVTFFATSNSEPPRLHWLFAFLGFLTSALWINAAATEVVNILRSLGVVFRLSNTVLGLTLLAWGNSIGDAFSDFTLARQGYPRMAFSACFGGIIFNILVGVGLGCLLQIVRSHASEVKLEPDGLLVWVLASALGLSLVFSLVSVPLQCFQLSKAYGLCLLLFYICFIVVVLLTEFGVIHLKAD
Assay: Measurement of the Na-Ca exchanger of rat brain mitochondria (Na-induced Ca-release, Oregon Green fluorescence)
Assay type: biochemical
Conditions: isolated rat brain mitochondria; Ca-efflux rates induced by 20 mM NaCl; rt
Protocol: The method is adapted from the method of Rosenthal et al. [J. Cereb. Blood Flow Metab., 7, 752-758 (1987)].
MSH+: 225 mM mannitol, 75 mM sucrose, 5 mM Hepes, 0.5 mM EDTA, 1 mg/ml of BSA (essentially free fatty acid free); final pH=7.3.
MSH−: Equal to MSH+, but without EDTA.
Nagarse solution: 5 mg of nagarse (bacterial protease type XXIV from Sigma, St. Louis, USA, catalogue # P-8038) dissolved in 1 ml of MSH+.
Digitonin solution: 10% W/V in DMSO.
The entire procedure is performed on ice. Remove the whole brain from the rat (1 brain=2 g). Add the tissue to cold MSH+in a beaker on ice. Cut the tissue into small pieces using scissors and wash the tissue 2 times with MSH+. Transfer the tissue into a 20 ml Dounce homogenizer and set level to about 9 ml with MSH+. Add 1 ml of freshly made Nagarse solution. Homogenize (6 strokes with a loose and 6 strokes with a tight pestle). […] The protein concentration is determined using the Pierce BCA assay (Pierce, Rockford Ill., USA). […]
In a typical experiment 96-well microtiter plates (flat bottom) are used. […] Distribute in a 96-well plate 5 μl/well of 2 μM ruthenium red [in 120 mM KCl and 20 mM Tris (pH=7.4)] and the compounds (in DMSO) to be analyzed (1 μl/well). […] Measure the Ca-release induced by the addition of Na by monitoring the Oregon Green fluorescence (485 nm and 538 nm monochromators for excitation and emission, respectively). […]

O=C1CS(=O)(=O)C(c2ccccc2Cl)c2cc(Cl)ccc2N1 (stereo not shown) [Example 1, 2-Chloro-9-(2-chlorophenyl)-8,8-dioxo-5,7,8,9-tetrahydro-8lambda*6*-thia-5-aza-benzocyclohepten-6-one]
IC50: 3.8 µM
